# Experimental data as given in patent US20210379077A1, “TOPOISOMERASE II CATALYTIC INHIBITOR COMPOUND THERAPEUTICS FOR CANCER TREATMENT, METHODS AND USES” (The University of British Columbia, priority 2018, published 2021).
# Tests used:
# Hela cells = assay: FACS cell cycle assay; type: cell-based; settings: 20 μM, 48 hours
# Protocol: BrdU incorporation rates were determined by Millipore™ BrdU incorporation kit (CAT #2750). (b-c) Hela cells were treated with vehicle or 20 μM of Top60 for 48 hours. Cells were then stained with APC-BrdU and 7-AAD for 4 hours, and subjected to FACS assays to determine cell populations at Sub G0/G1, G0/G1, S, and G2/M phases. Results were collected from three independent experiments, (d-e) Hela cells were treated with either vehicle or 20 μM T60 for 48 hours. Cells were fixed and co-stained with DAPI and phalloidin, and examined by confocal microscopy. Fifty cells were chosen from five high power fields to analyze nuclei sizes by the Image J software. Representative bright field microscopic images were also shown. Scale bar=50 μm.
# FACS assays—Cell cycling was assessed by using BrdU incorporation into S-phase DNA through using the APC BrdU flow kit (BD Pharmingen™; Franklin Lakes, N.J., USA) according to manufacturer's protocol. Briefly, 1 mM of BrdU was added to cells and incubated for 6 hours. Cells were incubated with anti-BrdU antibody and stained with 7-AAD before processing the cells for flow cytometry.
# [1] = tested on: Etoposide-resistant K562 cell line; assay: MTS cell proliferation assay in Etoposide-resistant cells; type: cell-based; settings: 0-20 μM, 48 hours; cells with downregulated Topo II
# Protocol: Whole cell lyses were collected and used to measure protein levels of TOP2α, TOP2β with β-Actin as a loading control; (b) K562 cells were treated with 0, 1, and 10 μM of Top60 for 24 hours. Protein lyses were collected from soluble nuclear extract, chromatin fraction or whole cell lysate. TOP2α and TOP2β protein levels were determined by immunoblotting with Lamin A/C, Histone H3 and β-Actin as loading controls; and (c) Etoposide-resistant K562 cell line was established by treating cells with 0.5 μM of Etoposide for 6 months. TOP2α, TOP2β, and β-actin protein levels were determined by immunoblotting. Etoposide-resistant K562 cells were treated with 0, 1, 10, 15 and 20 μM of Top60, Etoposide or ICRF187 for 48 hours. Cell proliferation rates were determined by MTS assays.
# In order to asses binding of the lead compound to Topo II, a thermal shift assay was performed. […] It was observed that Topo IIα was stabilized up to 43° C. in the presence of the lead compound (FIG. 4A). Furthermore, cellular fractionation was performed to assess localized changes in Topo II in response to compound treatment. As Topo IIα is important for decatenating DNA during cellular replication, it is expected to be chromatin bound. […] To further verily that Topo II is the only observable target of Top60, Etoposide resistant cell lines were bred. […]
smiles,measurement,setting,value
O=C(Nc1ccc(Nc2ccccc2)cc1)c1ccc[nH]c1=S [Compound 60],cell population in G2/M,Hela cells,increased cell population in G2/M
same,cell population in S-phase,Hela cells,large cell population delayed in S-phase
same,inhibitory effects on Etoposide resistant cells,[1],dramatically reduced
